Legend:
Assay type in all cases: cell-based
Erwinia carotovora = experiment: Bactericidal activity in vitro in LB agar medium; details: 28° C.
Protocol: The bactericidal activity of eugenol and isoeugenol was evaluated in vitro and compared with that of other terpenes.
The culture medium used is the following LB medium:
Bactotryptone: 1% by weight
Yeast extract: 0.5% by weight
A suspension of bacteria at 10^6 CFU/ml was prepared in sterilized water from the LB medium. 200 μl of this bacterial suspension were added to 20 ml of presterilized LB culture medium brought to 55° C. The tested terpene is then added to the culture medium. After agitation, the medium is immediately divided among Petri dishes. The medium solidifies on cooling.
Incubation is carried out at 28° C. when the bacterium is Erwinia carotovora and at 37° C. when the bacterium is Escherichia coli.
The growth of mould in the culture medium is observed. The same experiment is carried out in the absence of terpene (control experiment).
The results are evaluated using the following assessment scale:
++: mould growth identical to the control
+: mould present with a marked reduction in growth with respect to the control
: complete absence of growth.
The results obtained for 3 different concentrations, namely 20, 80 and 320 μg/ml, in the case of the bacterium Erwinia carotovora are summarized in Table 7.
The protocol used is that described above.

Penicillium expansum [1] = experiment: Fungicidal activity in vitro: mycelial growth on Cristomalt agar; details: PE
Protocol: (§1) The Cristomalt medium used for the evaluations of the fungicidal activities comprises 0.1% of Cristomalt (malt extract) and 0.2% of agar.
(§2) This culture medium is, after sterilization, brought to 55° C. The terpene compound tested is then introduced in the pure form into the culture medium under warm conditions. Immediately after agitating, the medium, enriched with the terpene product, is poured into Petri dishes (diameter 9 cm, filled with 20 ml of medium). The agar-comprising medium solidifies on cooling. The Petri dishes are then inoculated with plugs, with a diameter of 6 mm, withdrawn from the edge of a culture of the tested fungus, which culture is obtained on Cristomalt medium.
(§3) Inoculation is carried out at 22° C.
(§4) The mycelial growth was determined periodically (5 to 15 days, according to the species of fungus).
(§5) The results are expressed in Table 3 below in terms of MIC, which is the content (in μg/ml) which makes it possible to obtain complete inhibition of mycelial growth.
(§6) In f act, each experiment was carried out several times, so that, for each terpene and for each species of fungus, a minimum value and a maximum value were obtained.

Alternaria alternata [2] = experiment: as above; details: AA
Protocol: as §1, §2, §3, §4, §5, §6

Geocrichum candidum [3] = experiment: as above; details: GC
Protocol: as §1, §2, §3, §4, §5, §6

Botrytis cinerea [4] = experiment: as above; details: BC
Protocol: as §1, §2, §3, §4, §5, §6

Penicillium digitatum [5] = experiment: as above; details: PD
Protocol: as §1, §2, §3, §4, §5, §6

[6] = test system: Phlyctaena vagabonda (“Gloeosporium”); experiment: as above; details: PV
Protocol: as §1, §2, §3, §4, §5, §6

Phytophtora parasitica [7] = experiment: as above; details: PhP
Protocol: as §1, §2, §3, §4, §5, §6

Fusarium oxysporum [8] = experiment: as above
Protocol: as §1, §2, §3, §4, §5, §6

Gliocladium roseum = experiment: as above; details: GR
Protocol: as §1, §2, §3, §4, §5, §6

Penicillium expansum [9] = experiment: Germination of the spores in vitro; details: PE
Protocol: (§7) The activity of eugenol and of isoeugenol on the germination of the spores was evaluated in vitro and compared with that of other terpenes.
(§8) The procedure of Example 4 is used to do this, except that the concentration of eugenol and of isoeugenol was set at x μg/ml in the culture media used and that 50 μl of a suspension of spores, adjusted to 100,000 spores/ml, are deposited in each Petri dish.
(§9) The same experiment was carried out starting with a terpene-free culture medium (control test).
(§10) The results were evaluated using the following assessment criteria:
(§11) +: considerable reduction in the level of spores germinated
(§12) The results obtained for 3 different concentrations of terpenes in the culture medium, namely 40 μg/ml, 80 μg/ml and 1280 μg/ml, are listed in Tables 4, 5 and 6.

Alternaria alternata [10] = experiment: Germination of the spores in vitro; details: AA
Protocol: as §7, §8, §9, §10, §11, §12

Geocrichum candidum [11] = experiment: Germination of the spores in vitro; details: GC
Protocol: as §7, §8, §9, §10, §11, §12

Botrytis cinerea [12] = experiment: Germination of the spores in vitro; details: BC
Protocol: as §7, §8, §9, §10, §11, §12

Penicillium digitatum [13] = experiment: Germination of the spores in vitro; details: PD
Protocol: as §7, §8, §9, §10, §11, §12

[14] = test system: Phlyctaena vagabonda (“Gloeosporium”); experiment: Germination of the spores in vitro; details: PV
Protocol: as §7, §8, §9, §10, §11, §12

Phytophtora parasitica [15] = experiment: Germination of the spores in vitro; details: PhP
Protocol: as §7, §8, §9, §10, §11, §12

Fusarium oxysporum [16] = experiment: Germination of the spores in vitro; details: FO
Protocol: as §7, §8, §9, §10, §11, §12

[17] = MIC expressed on the scale of Table 2
[18] = min-max range of several experiments, 22° C., read-out: MIC (content giving complete inhibition of mycelial growth)

CC12CCC(CC1)C(C)(C)O2 [EUCALYPTOL, eucalyptol]
640 to 1280 µg/mL: MIC (Botrytis cinerea [4]; Botrytis cinerea, min-max range of several experiments, 22° C., read-out: MIC (content giving complete inhibition of mycelial growth)) | MIC (Fusarium oxysporum [8]; Fusarium oxysporum, FO, min-max range of several experiments, 22° C., read-out: MIC (content giving complete inhibition of mycelial growth))
160 to 320 µg/mL: MIC [6, 18]
0: germination of the spores (Alternaria alternata [10]; x = 1280 μg/ml) | germination of the spores (Geocrichum candidum [11]; x = 1280 μg/ml) | germination of the spores (Botrytis cinerea [12]; x = 1280 μg/ml) | germination of the spores ([14]; x = 1280 μg/ml) | germination of the spores (Phytophtora parasitica [15]; x = 1280 μg/ml) | germination of the spores (Fusarium oxysporum [16]; x = 1280 μg/ml)
+: germination of the spores (Penicillium expansum [9]; x = 40 μg/ml) | germination of the spores (Penicillium expansum [9]; x = 80 μg/ml) | germination of the spores (Penicillium expansum [9]; x = 1280 μg/ml) | germination of the spores (Geocrichum candidum [11]; x = 80 μg/ml) | germination of the spores (Penicillium digitatum [13]; x = 40 μg/ml) | germination of the spores (Penicillium digitatum [13]; x = 80 μg/ml) | germination of the spores (Penicillium digitatum [13]; x = 1280 μg/ml) | germination of the spores ([14]; x = 80 μg/ml) | germination of the spores (Phytophtora parasitica [15]; x = 80 μg/ml)
4 (160-320): Inhibition grades [6, 17]
320 to 640 µg/mL: MIC (Erwinia carotovora; Pectobacterium carotovorum, Erwinia sp., read-out: MIC (concentration needed to completely inhibit the growth of the bacteria)) | MIC (Geocrichum candidum [3]; [18]) | MIC (Phytophtora parasitica [7]; [18]) | MIC (Gliocladium roseum; Clonostachys rosea, min-max range of several experiments, 22° C., read-out: MIC (content giving complete inhibition of mycelial growth))
1 (>1280): Inhibition grades (Penicillium expansum [1]; [17]) | Inhibition grades (Alternaria alternata [2]; [17]) | Inhibition grades (Penicillium digitatum [5]; [17])
3 (320-640): Inhibition grades (Geocrichum candidum [3]; [17]) | Inhibition grades (Phytophtora parasitica [7]; [17]) | Inhibition grades (Gliocladium roseum; [17])
2 (640-1280): Inhibition grades (Botrytis cinerea [4]; [17]) | Inhibition grades (Fusarium oxysporum [8]; OF, MIC expressed on the scale of Table 2)
> 1280 µg/mL: MIC (Penicillium expansum [1]; Penicillium expansum, min-max range of several experiments, 22° C., read-out: MIC (content giving complete inhibition of mycelial growth)) | MIC (Alternaria alternata [2]; Alternaria alternata, min-max range of several experiments, 22° C., read-out: MIC (content giving complete inhibition of mycelial growth)) | MIC (Penicillium digitatum [5]; Penicillium digitatum, min-max range of several experiments, 22° C., read-out: MIC (content giving complete inhibition of mycelial growth))
++: growth in the culture medium with respect to the control (Erwinia carotovora; Concentration 20 μg/ml) | growth in the culture medium with respect to the control (Erwinia carotovora; Concentration 80 μg/ml) | growth in the culture medium with respect to the control (Erwinia carotovora; Concentration 320 μg/ml) | germination of the spores (Alternaria alternata [10]; x = 40 μg/ml) | germination of the spores (Alternaria alternata [10]; x = 80 μg/ml) | germination of the spores (Geocrichum candidum [11]; x = 40 μg/ml) | germination of the spores (Botrytis cinerea [12]; x = 40 μg/ml) | germination of the spores (Botrytis cinerea [12]; x = 80 μg/ml) | germination of the spores ([14]; x = 40 μg/ml) | germination of the spores (Phytophtora parasitica [15]; x = 40 μg/ml) | germination of the spores (Fusarium oxysporum [16]; x = 40 μg/ml) | germination of the spores (Fusarium oxysporum [16]; x = 80 μg/ml)

— patent US6723364B1, “Fog treatment method using a liquid composition for treating fruits and vegetables and implementing device” (Xeda International, priority 1998, dated 2004)
